The text below walks through data of patent publication US20070093491A1, “Novel condensed n-pyrazinyl-sulphonamides and their use in the treament of chemokine mediated diseases” (priority 2003, published 2007).

Structures can show the parent of a compound that is named as a salt.

Test system in the first data set: not given
Assay: not given
Conditions: not given
The melting point is the temperature, or range, at which the solid turns liquid. `COc1nc2cccnc2nc1NS(=O)(=O)c1cccc(Cl)c1Cl` (as salt: TFA) [Example 7, 2,3-Dichloro-N-(2-methoxypyrido[2,3-b]pyrazin-3-yl)benzenesulfonamide] yielded a melting point of 238 to 239 °C. On the same count and under the same terms, with `COc1nc2ncc(Br)cc2nc1NS(=O)(=O)c1cccc(Cl)c1Cl` [Example 11, N-(7-Bromo-3-methoxypyrido[2,3-b]pyrazin-2-yl)-2,3-dichlorobenzenesulfonamide] the figure was 230 to 231 °C; with `COc1nc2cnccc2nc1NS(=O)(=O)c1cccc(Cl)c1Cl` [Example 13, 2,3-Dichloro-N-(3-methoxypyrido[3,4-b]pyrazin-2-yl)benzenesulfonamide], 256 to 257 °C; with `COc1nc2cc(Br)cnc2nc1NS(=O)(=O)c1cccc(Cl)c1Cl` [Example 12, N-(7-bromo-2-methoxypyrido[2,3-b]pyrazin-3-yl)-2,3-dichlorobenzenesulfonamide], 233 to 234 °C.

As to `COc1cc2nc(NS(=O)(=O)c3cccc(Cl)c3Cl)c(OC)nc2cc1OC` [Example 9, 2,3-Dichloro-N-(3,6,7-trimethoxyquinoxalin-2-yl)benzenesulfonamide], the melting point came to 215 °C. `COc1nc2cc(Cl)c(Cl)cc2nc1NS(=O)(=O)c1cccc(Cl)c1Cl` [Example 10, 2,3-Dichloro-N-(6,7-dichloro-3-methoxyquinoxalin-2-yl)benzenesulfonamide]: the melting point was in the range of 283 to 285 °C.

A further data set has as its target T1, human recombinant CCR4 receptor (Homo sapiens, UniProt P51679).
T1 construct: host or cells: CHO-K1
T1 sequence (P51679 1-360): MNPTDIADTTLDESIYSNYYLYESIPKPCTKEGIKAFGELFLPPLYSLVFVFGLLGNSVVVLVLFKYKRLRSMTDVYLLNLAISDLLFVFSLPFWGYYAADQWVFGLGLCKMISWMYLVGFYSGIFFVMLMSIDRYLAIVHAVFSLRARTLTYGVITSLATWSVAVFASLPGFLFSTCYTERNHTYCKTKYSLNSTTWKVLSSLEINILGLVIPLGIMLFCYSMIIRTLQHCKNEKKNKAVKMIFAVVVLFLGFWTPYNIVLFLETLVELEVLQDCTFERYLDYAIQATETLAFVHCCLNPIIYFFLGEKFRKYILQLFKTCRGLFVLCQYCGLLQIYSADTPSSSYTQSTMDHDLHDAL
Description: FMAT whole cell binding assay (FB-MDC binding to CHO-K1 cells expressing CCR4). As to conditions: inhibition of 2.8 nM FB-MDC binding to CHO-K1 cells stably expressing human recombinant CCR4; two hours incubation at room temperature; FMAT8100 reader. Here is the method:
FMAT Whole cell Binding Assay
CHO-K1 cells stably expressing the human recombinant CCR4 receptor (Euroscreen; Brussels, Belgium) were cultured in NUT.MIX.F—12(HAM) medium with glutamax-1, containing 10% (v/v) foetal bovine serum and 400 μg ml^−1 geneticin.
Cells were harvested at approximately 70% confluence by treatment with a cell dissociation buffer, and seeded at 5×10^3 cells/100 μl culture medium into wells of a black Costar clear-bottomed 96-well microtitre plates. Plates were incubated overnight at 37° C. in 5% CO2 and used the following day.
Before use, the cell plates were washed twice with 100 μl Hanks balanced salt solution (HBSS). To each well was then added 65 μl of HBSS, 10 μL of 10% DMSO in HBSS±test compound and then 25 μL of 2.8 nM FB-MDC (Applied Biosystems). This fluorescent probe was prepared from a 10 μM stock in 0.08% (v/v) TFA/16% (v/v) acetonitrile, diluted into HBSS.
After two hours incubation in the dark at room temperature, the plates were analysed in an FMAT8100 reader (Applied Biosystems) to measure fluorescence that was associated with binding of FB-MDC to the cells. Compound activity was determined as an pIC50 [log(concentration of compound that results in 50% inhibition)], comparing fluorescence in control and background wells.
A word on the IC50: it is the midpoint of a concentration-inhibition curve. Turning to `COc1nc2ccccc2nc1NS(=O)(=O)c1cccc(Cl)c1Cl` [Example 1, 2,3-Dichloro-N-(3-methoxyquinoxalin-2-yl)-benzenesulfonamide], the IC50 is 1.58 µM. In the case of `O=S(=O)(Nc1nc2ccccc2nc1OCc1ccco1)c1cccs1` [Example 5, N-[3-(2-Furylmethoxy)quinoxalin-2-yl]thiophene-2-sulfonamide], the 50% inhibitory concentration (IC50) was 2 µM. Turning to `COc1nc2ccccc2nc1NS(=O)(=O)c1ccc(Cl)s1` [Example 3, 5-Chloro-N-(3-methoxyquinoxalin-2-yl)thiophene-2-sulfonamide], the IC50 is 0.398 µM.
